# Earlier results as cited in publication PMC10620911 (ACS Omega, 2023).
# Conditions: structure-dependent
smiles,measurement,value
Cc1noc(-c2ccc(-c3ccc(C4(C(=O)O)CC4)cc3)cc2)c1NC(=O)O[C@H](C)c1ccccc1 [BMS-986020],hepatobiliary toxicity,hepatobiliary toxicity
